Results on four compounds are retold here after patent US10144915B2, “Reprogramming fibroblasts into cardiomyocytes” (The J. David Gladstone Institutes, a testamentary trust …, priority 2013, dated 2018).

One assay addresses SAPK2/p38 (Homo sapiens, UniProt Q16539). As to conditions: CK1 and ALK5 inhibitor versus SAPK2/p38; cited from earlier work.
The target of a further assay is adenylate cyclase 1 (Homo sapiens, UniProt Q08828). The conditions noted are these: cited from earlier work.
Assay [1] deals with cardiomyocytes generated from mouse tail tip fibroblasts (TTFs). As to the kind of experiment: β-adrenergic and muscarinic stimulation of induced cardiomyocytes (beating, Ca2+ transients). The format is cell-based. As to conditions: applied locally. As to the method: Myocytes were loaded with 5 μM Fluo-4 AM (Molecular Probes, Invitrogen Corp, Carlsbad, Calif.), a Ca^++ indicator dye for 20 minutes at room temperature followed by 20 minutes in dye-free extracellular solution to allow for Fluo-4 de-esterification prior to commencing recordings. Ca^++ transients were recorded via a standard filter set (#49011 ET, Chroma Technology Corp., Bellows Falls, Vt.) and a photomultiplier-based recording system (lonOptix PMT400, Milton, Mass.). Fluorescence was recorded simultaneously from an entire myocyte cluster. Between sampling periods, excitation light was blocked by a shutter (CS35; Vincent Associates, Rochester, N.Y.) and background fluorescence was recorded after removing the cell(s) from the field of view at the end. Where applicable, 1 μM isoproterenol (Iso) or 25 μM carbachol (Cch) were applied locally (to the cell cluster of interest) using a perfusion pencil (AutoMate Scientific, Berkeley, Calif.).
Intact […] nervous system responses to hormones and transmitters are one of the most critical characteristics of normal cardiomyocytes. […] After washing out carbachol, cells resumed contracting and the Ca^2+ transients immediately returned to normal (FIG. 4H).

pIC50: −log10 of the molar value.

Broadly, the pIC50 is the negative decadic logarithm of the IC50, by convention in mol/L.

Sequence of adenylate cyclase 1 (Q08828 whole entry): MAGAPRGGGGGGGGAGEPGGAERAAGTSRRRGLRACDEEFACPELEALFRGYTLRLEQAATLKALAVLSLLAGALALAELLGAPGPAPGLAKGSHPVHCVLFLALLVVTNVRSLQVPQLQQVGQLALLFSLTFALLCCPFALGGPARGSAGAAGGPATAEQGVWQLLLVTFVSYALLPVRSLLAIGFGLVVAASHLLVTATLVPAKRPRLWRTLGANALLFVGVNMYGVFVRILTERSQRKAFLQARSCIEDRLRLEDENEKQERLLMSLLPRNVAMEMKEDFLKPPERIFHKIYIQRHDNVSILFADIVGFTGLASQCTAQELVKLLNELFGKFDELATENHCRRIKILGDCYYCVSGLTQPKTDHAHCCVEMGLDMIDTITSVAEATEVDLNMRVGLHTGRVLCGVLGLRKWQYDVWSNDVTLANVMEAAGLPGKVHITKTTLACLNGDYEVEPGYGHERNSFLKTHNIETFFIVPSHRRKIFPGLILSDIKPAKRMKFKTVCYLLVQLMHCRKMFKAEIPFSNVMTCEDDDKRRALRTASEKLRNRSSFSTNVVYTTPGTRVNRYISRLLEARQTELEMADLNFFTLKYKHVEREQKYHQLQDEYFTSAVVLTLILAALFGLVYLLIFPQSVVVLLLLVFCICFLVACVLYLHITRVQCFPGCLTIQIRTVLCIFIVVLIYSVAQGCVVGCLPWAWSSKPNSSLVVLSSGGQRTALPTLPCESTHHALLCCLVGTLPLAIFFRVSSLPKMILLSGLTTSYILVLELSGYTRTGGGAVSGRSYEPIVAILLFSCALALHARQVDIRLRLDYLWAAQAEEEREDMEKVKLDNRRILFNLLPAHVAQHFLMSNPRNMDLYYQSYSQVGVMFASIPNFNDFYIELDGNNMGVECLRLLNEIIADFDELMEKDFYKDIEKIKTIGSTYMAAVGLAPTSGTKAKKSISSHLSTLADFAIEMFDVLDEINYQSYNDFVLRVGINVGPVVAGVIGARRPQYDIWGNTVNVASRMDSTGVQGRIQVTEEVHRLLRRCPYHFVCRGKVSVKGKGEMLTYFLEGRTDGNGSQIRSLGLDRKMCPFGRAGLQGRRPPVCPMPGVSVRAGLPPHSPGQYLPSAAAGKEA
Sequence of SAPK2/p38 (Q16539 whole entry): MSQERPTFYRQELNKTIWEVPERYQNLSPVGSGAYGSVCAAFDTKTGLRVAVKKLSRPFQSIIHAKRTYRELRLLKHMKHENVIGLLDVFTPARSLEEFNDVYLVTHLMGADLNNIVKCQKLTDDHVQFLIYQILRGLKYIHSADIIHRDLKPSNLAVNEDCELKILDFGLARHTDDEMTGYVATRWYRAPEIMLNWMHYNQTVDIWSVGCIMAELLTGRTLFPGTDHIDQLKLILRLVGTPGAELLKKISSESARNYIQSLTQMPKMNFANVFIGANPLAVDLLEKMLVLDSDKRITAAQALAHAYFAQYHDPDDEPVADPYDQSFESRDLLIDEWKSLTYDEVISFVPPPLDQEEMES

`NC(=O)c1ccc(-c2nc(-c3ccc4c(c3)OCCO4)c(-c3ccccn3)[nH]2)cc1` [D 4476, 4-[4-(2,3-Dihydro-1,4-benzodioxin-6-yl)-5-(2-pyridinyl)-1H-imidazol-2-yl]benzamide]: the “selectivity over SAPK2/p38” value on SAPK2/p38 was “greater than 20 fold”.
Turning to `C=C[C@@]1(C)CC(=O)[C@]2(O)[C@@]3(C)[C@@H](O)CCC(C)(C)[C@@H]3[C@H](O)[C@H](OC(C)=O)[C@@]2(C)O1` [Forskolin], on adenylate cyclase 1, the pIC50 was 6.82 to 7.40.
In the case of `C[N+](C)(C)CCOC(N)=O` [carbachol], in assay [1] (25 μM, reversible on wash-out), the “frequency of cell contracting and spontaneous calcium transients” value was “opposite effect”.
Turning to `CC(C)NCC(O)c1ccc(O)c(O)c1` (stereo not shown) [isoproterenol], the “frequency of cell contracting and spontaneous calcium transients” value in assay [1] (1 μM) is on record as “significantly increased”.
